1 substance from patent US20100056606A1, “Combination therapy using budesonide and antisense oligonucleotide targeted to IL4-receptor alpha” (ISIS Pharmaceuticals, Inc., priority 2005, published 2010) can be followed below.

The conditions of data set [1]: mouse, in vivo.
For another data set, the system named is IL-4R alpha protein. Put plainly: IL-4R alpha protein in lung cells by flow cytometry, acute model. It is filed as in vivo, mouse. The method, then: (§1) Dendritic cells, eosinophils, macrophages and epithelial cells recovered from collagenase digested lung were analyzed for expression of IL-4R alpha protein by flow cytometry. […] A second experiment, in which mice were dosed with 10 μg/kg ISIS 231894, confirmed the efficacy of ISIS 231894 to decrease AHR and eosinophilia in the acute model.

The subject of a further data set is OVA sensitized mice. Put plainly: Ovalbumin induced allergic inflammation, acute model (AHR/Penh, BAL eosinophils). It is filed as in vivo, mouse. The following applies: for % Eosinophils (BAL) / Penh (100 mg/mL methacholine): day 28. The method, then: In the mouse model of allergic inflammation, mice are sensitized and challenged with aerosolized chicken ovalbumin (OVA). Airway responsiveness is assessed by inducing airflow obstruction using a noninvasive method whereby unrestrained conscious OVA sensitized mice are placed into the main chamber of a plethysmograph (Buxco Electronics, Inc. Troy, N.Y.) and challenged with aerosolized methacholine. Pressure difference between this chamber and a reference chamber is used to extrapolate minute volume, breathing frequency and enhanced pause (Penh). Penh is a dimensionless parameter that is a function of total pulmonary airflow (i.e. the sum of the airflow in the upper and lower respiratory tracts) during the respiratory cycle of a mouse and is […] when airflow is greater. This parameter closely correlates with lung resistance as measured by traditional, invasive techniques using ventilated animals (Hamelmann et al., 1997, Am. J. Respir. Crit. Care Med. 156:766-775).
The mouse model of allergic inflammation was used to test the efficacy of an inhaled antisense oligonucleotide targeted to mouse IL-4R alpha. A mismatched IL-4R alpha oligonucleotide (mismatch control oligonucleotide) was used as a negative control. Male Balb/c mice 8-10 weeks old (Charles River Laboratory, Taconic Farms, N.Y.) were maintained in micro-isolator cages housed in a specific pathogen free (SPF) facility. The sentinel cages within the animal colony surveyed negative for viral antibodies and the presence of known mouse pathogens.
For the acute model of allergic inflammation, mice were sensitized with 20 μg of alum-precipitated OVA was injected intraperitoneally on days 0 and 14. On days 24, 25 and 26, animals were exposed for 20 minutes to 1% OVA (in saline) by ultrasonic nebulization. On days 17, 19, 21, 24 and 26 animals were dosed with vehicle alone (saline), 1 μg/kg or 10 μg/kg of ISIS 231894 or the mismatch control oligonucleotide. Oligonucleotides or vehicle were suspended in 0.9% sodium chloride and delivered via inhalation using a nose-only aerosol delivery exposure system. A Lovelace nebulizer set at a flow rate of 1.4 liter per minute feeding into a total flow rate of 10 liters per minute was used to deliver the oligonucleotide. The exposure chamber was equilibrated with an oligonucleotide aerosol solution for 5 minutes before mice were placed in a restraint tube attached to the chamber. Restrained mice were treated for a total of 10 minutes. Analysis was performed on day 28.
as §1

In another data set the test system is mouse IL-4R alpha RNA. Put plainly: Antisense inhibition of mouse IL-4R alpha mRNA in b.END cells, real-time PCR. It is filed as cell-based. The following applies: 24 hours. The method, then: The mouse brain endothelial cell line b.END was obtained from Dr. Werner Risau at the Max Plank Institute (Bad Nauheim, Germany). b.END cells were routinely cultured in DMEM, high glucose (Invitrogen Life Technologies, Carlsbad, Calif.) supplemented with 10% fetal bovine serum (Invitrogen Life Technologies, Carlsbad, Calif.). Cells were routinely passaged by trypsinization and dilution when they reached approximately 90% confluence. Cells were seeded into 96-well plates (Falcon-Primaria #353872, BD Biosciences, Bedford, Mass.) at a density of approximately 3000 cells/well for use in oligomeric compound transfection experiments.
When cells reach appropriate confluency, they are treated with oligonucleotide using Lipofectin™ as described. When cells reached 65-75% confluency, they were treated with oligonucleotide. Oligonucleotide was mixed with LIPOFECTIN™ Invitrogen Life Technologies, Carlsbad, Calif.) in Opti-MEM™-1 reduced serum medium (Invitrogen Life Technologies, Carlsbad, Calif.) to achieve the desired concentration of oligonucleotide and a LIPOFECTIN™ concentration of 2.5 or 3 […] oligonucleotide. This transfection mixture was incubated at room temperature for approximately 0.5 hours. For cells grown in 96-well plates, wells were washed once with 100 μL OPTI-MEM™-1 and then treated with 130 μL of the transfection mixture. Cells grown in 24-well plates or other standard tissue culture plates are treated similarly, using appropriate volumes of medium and oligonucleotide. Cells are treated and data are obtained in duplicate or triplicate. After approximately 4-7 hours of treatment at 37° C., the medium containing the transfection mixture was replaced with fresh culture medium. Cells were harvested 16-24 hours after oligonucleotide treatment.
Quantitation of IL-4R alpha mRNA levels was accomplished by real-time quantitative PCR using the ABI PRISM™ 7600, 7700, or 7900 Sequence Detection System (PE-Applied Biosystems, Foster City, Calif.) according to manufacturer's instructions.
Prior to quantitative PCR analysis, primer-probe sets specific to the target gene being measured were evaluated for their ability to be “multiplexed” with a GAPDH amplification reaction. After isolation the RNA is subjected to sequential reverse transcriptase (RT) reaction and real-time PCR, both of which are performed in the same well. RT and PCR reagents were obtained from Invitrogen Life Technologies (Carlsbad, Calif.). […] The RT reaction was carried out by incubation for 30 minutes at 48° C. Following a 10 minute incubation at 95° C. to activate the PLATINUM® Taq, 40 cycles of a two-step PCR protocol were carried out: 95° C. for 15 seconds (denaturation) followed by 60° C. for 1.5 minutes (annealing/extension).
Gene target quantities obtained by RT, real-time PCR were normalized using either the expression level of GAPDH, a gene whose expression is constant, or by quantifying total RNA using RiboGreen™ (Molecular Probes, Inc. Eugene, Oreg.). GAPDH expression was quantified by RT, real-time PCR, by being run simultaneously with the target, multiplexing, or separately. Total RNA was quantified using RiboGreen™ RNA quantification reagent (Molecular Probes, Inc. Eugene, Oreg.).
Probes and primers for use in real-time PCR were designed to hybridize to target-specific sequences. The target-specific PCR probes have FAM covalently linked to the 5′ end and TAMRA or MGB covalently linked to the 3′ end, where FAM is the fluorescent dye and TAMRA or MGB is the quencher dye.
A series of oligomeric compounds was designed to target different regions of mouse IL-4R alpha RNA, using SEQ ID NO: 5. All compounds are chimeric oligonucleotides (“gapmers”) 20 nucleotides in length, composed of a central “gap” region consisting of ten 2′-deoxynucleotides, which is flanked on both sides (5′ and 3′) by five-nucleotide “wings”. The wings are composed of 2′-O-(2-methoxyethyl) nucleotides, also known as 2′-MOE nucleotides. […]

With “ISIS 231894: lead antisense oligonucleotide targeted to mouse IL-4R alpha; CCGCTGTTCTCAGGTGACAT; SEQ ID NO: 24; 2'-MOE gapmer, phosphorothioate (all phosphorothioate, sugars by position and methylation of C not given here; 2'-MOE gapmer)”, the “half life in the lung” value in data set [1] lay in the range of 2 to 4 days. Besides, the “IL-4R alpha protein in dendritic, epithelial and mixed eosinophil/macrophage lung cells, in words” value with IL-4R alpha protein is “significant reduction”. Further, the “eosinophil infiltration in BAL fluid, in words” value in the data set on OVA sensitized mice was “significant decrease”. Also, the “pulmonary function: lung resistance and compliance, in words” value in the data set with OVA sensitized mice is recorded as “Significant improvement”. Also, the “% Eosinophils (BAL)” value in the data set on OVA sensitized mice (1 μg/kg inhaled) and in the data set on OVA sensitized mice (10 μg/kg inhaled) was 35% each time. The “Penh (100 mg/mL methacholine)” value is reported as 6 in the data set on OVA sensitized mice (1 μg/kg inhaled) and 4.5 in the data set with OVA sensitized mice (10 μg/kg inhaled). Besides, in the data set on OVA sensitized mice (1 and 10 μg/kg inhaled), the “methacholine-induced AHR (Penh, whole body plethysmography), in words” value is “significant, dose dependent suppression”. For the same substance, the “IL-4R alpha mRNA” value in the data set with mouse IL-4R alpha RNA (1 nM) is recorded as 100 % of untreated control; with mouse IL-4R alpha RNA (5 nM) it was 55 % of untreated control; in the data set with mouse IL-4R alpha RNA (10 nM), 41 % of untreated control; with mouse IL-4R alpha RNA (25 nM), 35 % of untreated control; with mouse IL-4R alpha RNA (50 nM) it was 20 % of untreated control; with mouse IL-4R alpha RNA (100 nM), 20 % of untreated control. Further, the “mouse IL-4R alpha mRNA reduction (in words)” value in the data set with mouse IL-4R alpha RNA (compared to mismatch control) is listed as “dose-dependent mouse IL-4R alpha mRNA reduction”.
